Results as given in ChEMBL document CHEMBL5465560, “Selectivity Literature for EUbOPEN Chemogenomic Library” (2024).

Columns and labels:
[1] = target: T1, Aurora kinase A (Homo sapiens) (UniProt O14965); assay: Selectivity interaction (Kinase panel (KiNativ target engagement assay in Jurkat cells)) EUB0001635a STK6; assay type: cell-based; conditions: at 1 µM
T1 sequence (whole entry): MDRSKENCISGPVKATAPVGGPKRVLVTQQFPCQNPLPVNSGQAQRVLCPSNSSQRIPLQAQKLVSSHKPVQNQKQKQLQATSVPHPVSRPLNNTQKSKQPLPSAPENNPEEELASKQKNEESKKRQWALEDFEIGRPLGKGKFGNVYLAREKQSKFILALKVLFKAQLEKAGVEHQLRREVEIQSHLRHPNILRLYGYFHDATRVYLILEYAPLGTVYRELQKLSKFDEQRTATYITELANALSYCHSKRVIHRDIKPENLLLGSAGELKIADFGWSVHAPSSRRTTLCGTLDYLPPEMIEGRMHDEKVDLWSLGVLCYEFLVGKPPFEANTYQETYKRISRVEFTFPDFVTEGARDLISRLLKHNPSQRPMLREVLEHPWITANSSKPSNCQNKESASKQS

[2] = target: T2, 3-phosphoinositide-dependent protein kinase 1 (Homo sapiens) (UniProt O15530); assay: Selectivity interaction (KinomeScan (DiscoverX)) EUB0000229b PDPK1; conditions: at 10 µM
T2 sequence (whole entry): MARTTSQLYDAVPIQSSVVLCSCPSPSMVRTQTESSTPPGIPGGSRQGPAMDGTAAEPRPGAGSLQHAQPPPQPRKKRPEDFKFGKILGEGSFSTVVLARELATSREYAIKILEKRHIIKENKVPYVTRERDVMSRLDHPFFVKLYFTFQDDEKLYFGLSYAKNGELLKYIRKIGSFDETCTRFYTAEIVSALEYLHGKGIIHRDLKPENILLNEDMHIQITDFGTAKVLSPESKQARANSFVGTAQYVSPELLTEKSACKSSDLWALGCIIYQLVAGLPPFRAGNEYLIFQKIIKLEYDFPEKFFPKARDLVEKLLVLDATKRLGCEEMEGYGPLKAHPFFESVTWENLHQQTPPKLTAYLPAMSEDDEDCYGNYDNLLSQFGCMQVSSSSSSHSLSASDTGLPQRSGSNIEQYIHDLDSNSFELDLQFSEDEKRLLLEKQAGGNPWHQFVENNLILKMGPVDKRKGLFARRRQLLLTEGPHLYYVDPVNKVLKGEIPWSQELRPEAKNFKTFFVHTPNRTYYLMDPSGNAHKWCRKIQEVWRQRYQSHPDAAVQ

[3] = target: T3, Mitogen-activated protein kinase kinase kinase 6 (Homo sapiens) (UniProt O95382); assay: Selectivity interaction (KinomeScan (DiscoverX)) EUB0000595a MAP3K6; conditions: at 10 µM
T3 sequence (whole entry): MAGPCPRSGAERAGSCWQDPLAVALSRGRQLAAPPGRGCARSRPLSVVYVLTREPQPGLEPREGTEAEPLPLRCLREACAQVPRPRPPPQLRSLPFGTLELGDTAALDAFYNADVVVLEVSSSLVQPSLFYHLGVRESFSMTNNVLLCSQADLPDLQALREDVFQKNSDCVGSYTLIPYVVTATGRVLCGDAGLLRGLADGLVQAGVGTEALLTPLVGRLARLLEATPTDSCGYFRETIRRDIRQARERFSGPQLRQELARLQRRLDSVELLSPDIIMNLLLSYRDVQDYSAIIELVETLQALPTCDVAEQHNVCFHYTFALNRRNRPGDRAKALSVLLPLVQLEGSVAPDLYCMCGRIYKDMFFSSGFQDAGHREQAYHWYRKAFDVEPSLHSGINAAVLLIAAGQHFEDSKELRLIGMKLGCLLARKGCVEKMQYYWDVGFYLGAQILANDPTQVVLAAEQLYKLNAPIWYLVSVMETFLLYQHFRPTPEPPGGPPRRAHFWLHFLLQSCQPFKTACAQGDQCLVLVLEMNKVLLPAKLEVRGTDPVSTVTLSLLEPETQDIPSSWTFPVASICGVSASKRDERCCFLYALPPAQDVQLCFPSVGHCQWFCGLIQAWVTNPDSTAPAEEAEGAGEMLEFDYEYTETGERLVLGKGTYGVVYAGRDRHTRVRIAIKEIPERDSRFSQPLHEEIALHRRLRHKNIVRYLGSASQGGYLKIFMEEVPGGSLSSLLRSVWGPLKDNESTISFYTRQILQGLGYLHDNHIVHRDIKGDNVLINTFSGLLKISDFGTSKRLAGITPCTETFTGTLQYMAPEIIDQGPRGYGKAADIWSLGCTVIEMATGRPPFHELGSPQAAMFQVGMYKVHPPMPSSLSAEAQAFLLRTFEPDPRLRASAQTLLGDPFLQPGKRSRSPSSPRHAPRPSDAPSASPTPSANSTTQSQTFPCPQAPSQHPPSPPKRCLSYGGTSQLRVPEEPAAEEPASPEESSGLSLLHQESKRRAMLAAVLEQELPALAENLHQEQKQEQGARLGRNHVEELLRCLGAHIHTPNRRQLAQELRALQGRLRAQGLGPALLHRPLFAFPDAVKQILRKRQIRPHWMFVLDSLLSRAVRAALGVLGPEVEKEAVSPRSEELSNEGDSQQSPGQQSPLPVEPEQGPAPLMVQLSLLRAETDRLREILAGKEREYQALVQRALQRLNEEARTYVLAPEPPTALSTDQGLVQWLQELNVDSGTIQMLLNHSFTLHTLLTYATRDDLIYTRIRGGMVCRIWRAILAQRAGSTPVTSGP

[4] = target: Serine/threonine-protein kinase Nek7 (Homo sapiens) (UniProt Q8TDX7); assay: Selectivity interaction (Kinase panel (Z-LYTE Assay)) EUB0001632a NEK7; conditions: at 10 µM
Serine/threonine-protein kinase Nek7 (Homo sapiens), sequence (Q8TDX7 whole entry, looked up): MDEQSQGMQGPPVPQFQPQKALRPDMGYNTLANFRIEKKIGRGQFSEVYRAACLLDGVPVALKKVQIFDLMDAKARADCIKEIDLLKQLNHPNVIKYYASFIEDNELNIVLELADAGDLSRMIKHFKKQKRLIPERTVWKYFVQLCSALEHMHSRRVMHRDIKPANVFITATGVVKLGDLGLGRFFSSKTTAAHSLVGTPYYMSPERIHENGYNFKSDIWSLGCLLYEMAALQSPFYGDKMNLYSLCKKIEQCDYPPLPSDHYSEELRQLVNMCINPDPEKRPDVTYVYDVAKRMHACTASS

[5] = target: Glycogen synthase kinase-3 beta (Homo sapiens, UniProt P49841); assay: Selectivity interaction (KinomeScan (DiscoverX)) EUB0000666a GSK3B; conditions: at 10 µM
Glycogen synthase kinase-3 beta, sequence (P49841 whole entry, looked up): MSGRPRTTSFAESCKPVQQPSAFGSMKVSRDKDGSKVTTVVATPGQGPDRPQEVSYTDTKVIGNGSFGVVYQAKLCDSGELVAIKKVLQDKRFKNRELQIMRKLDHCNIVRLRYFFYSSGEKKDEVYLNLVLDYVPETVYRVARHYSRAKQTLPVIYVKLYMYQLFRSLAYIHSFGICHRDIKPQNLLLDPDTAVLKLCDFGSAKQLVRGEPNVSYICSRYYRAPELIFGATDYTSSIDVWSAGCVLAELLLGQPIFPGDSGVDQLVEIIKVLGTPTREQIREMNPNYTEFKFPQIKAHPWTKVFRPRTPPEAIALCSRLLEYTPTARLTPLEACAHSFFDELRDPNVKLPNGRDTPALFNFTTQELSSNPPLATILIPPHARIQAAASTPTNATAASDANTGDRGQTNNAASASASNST

[6] = target: Cyclin-dependent kinase 9 (Homo sapiens, UniProt P50750); assay: Selectivity interaction (KinomeScan (DiscoverX)) EUB0001049a CDK9; conditions: at 1 µM
Cyclin-dependent kinase 9, sequence (P50750 whole entry): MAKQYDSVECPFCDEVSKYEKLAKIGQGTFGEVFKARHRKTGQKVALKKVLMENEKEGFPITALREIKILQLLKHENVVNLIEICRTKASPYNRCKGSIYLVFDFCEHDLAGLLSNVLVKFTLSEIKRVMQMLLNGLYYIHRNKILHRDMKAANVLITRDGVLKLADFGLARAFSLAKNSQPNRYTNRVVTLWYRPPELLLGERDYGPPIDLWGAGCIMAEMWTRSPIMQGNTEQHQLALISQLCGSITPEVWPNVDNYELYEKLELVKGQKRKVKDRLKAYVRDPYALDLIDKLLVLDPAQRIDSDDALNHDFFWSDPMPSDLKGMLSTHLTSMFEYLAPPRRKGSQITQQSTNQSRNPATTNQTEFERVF

[7] = target: Serine/threonine-protein kinase SBK1 (Homo sapiens) (UniProt Q52WX2); assay: Selectivity interaction (KinomeScan (DiscoverX)) EUB0001049a SBK1; conditions: at 1 µM
Serine/threonine-protein kinase SBK1 (Homo sapiens), sequence (Q52WX2 whole entry): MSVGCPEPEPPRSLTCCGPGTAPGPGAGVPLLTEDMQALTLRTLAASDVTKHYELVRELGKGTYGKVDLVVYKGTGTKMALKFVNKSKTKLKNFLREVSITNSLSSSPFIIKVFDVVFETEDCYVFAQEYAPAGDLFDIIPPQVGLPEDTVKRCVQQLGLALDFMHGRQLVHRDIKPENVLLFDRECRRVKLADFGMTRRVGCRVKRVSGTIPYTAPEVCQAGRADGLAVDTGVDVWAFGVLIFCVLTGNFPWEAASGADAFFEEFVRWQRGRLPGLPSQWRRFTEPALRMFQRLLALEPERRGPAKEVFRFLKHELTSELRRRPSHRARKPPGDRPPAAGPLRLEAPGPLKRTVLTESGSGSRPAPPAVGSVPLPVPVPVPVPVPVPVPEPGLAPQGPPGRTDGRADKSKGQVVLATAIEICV

[8] = target: Serine/threonine-protein kinase PAK 1 (Homo sapiens) (UniProt Q13153); assay: Selectivity interaction (KinomeScan (DiscoverX)) EUB0001619a PAK1; conditions: at 1 µM
Serine/threonine-protein kinase PAK 1 (Homo sapiens), sequence (Q13153 whole entry): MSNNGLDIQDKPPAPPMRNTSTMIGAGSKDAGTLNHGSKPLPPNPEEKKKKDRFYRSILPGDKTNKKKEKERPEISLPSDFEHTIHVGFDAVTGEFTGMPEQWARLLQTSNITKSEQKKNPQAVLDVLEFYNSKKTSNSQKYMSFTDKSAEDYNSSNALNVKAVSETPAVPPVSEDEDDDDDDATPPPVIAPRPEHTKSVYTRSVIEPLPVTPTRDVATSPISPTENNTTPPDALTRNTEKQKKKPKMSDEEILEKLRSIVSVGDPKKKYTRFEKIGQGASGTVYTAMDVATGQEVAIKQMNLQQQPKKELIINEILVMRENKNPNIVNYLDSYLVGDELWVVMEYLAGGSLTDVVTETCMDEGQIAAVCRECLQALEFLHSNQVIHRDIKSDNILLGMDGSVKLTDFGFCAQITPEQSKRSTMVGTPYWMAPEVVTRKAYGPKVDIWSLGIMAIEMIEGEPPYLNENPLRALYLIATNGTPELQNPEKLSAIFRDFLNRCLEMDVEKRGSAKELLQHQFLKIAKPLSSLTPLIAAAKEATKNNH

## C=CC(=O)Nc1ccc(C(=O)Nc2[nH]nc3c2CN(C(=O)N[C@H](CN(C)C)c2ccccc2)C3(C)C)cc1
[1]; Selectivity number of off-targets 0.0, Selectivity number of targets 233.0, Source Knowledge https://www.sciencedirect.com/science/article/pii/S2451945619300674?via%3Dihub
  % of engagement: 22.4%
[1]
  % of engagement: 26%

## COc1cc(N(C)c2ccnc3ccc(C(F)(F)F)cc23)cc(OC)c1OC
[2]
  % binding: 98%

## COCC(=O)NC/C=C/c1ccc2ncnc(Nc3ccc(Oc4ccc(C)nc4)c(C)c3)c2c1 [CP-724714]
[3]
  % of control: 100%

## Cn1cc(-n2cnc3c(NCc4nc5cc(Cl)c(Cl)cc5[nH]4)nc(N4CCOCC4)nc32)cn1
[4]
  % of control: -10.9%

## O=C(NOC[C@H](O)CO)c1ccc(F)c(F)c1Nc1ccc(I)cc1F
[5]
  % of control: 68%

## COc1cc(Nc2nc(C)cc(-c3cnn4nc(OC)ccc34)n2)cc(C(F)(F)F)c1
[6]
  % of control: 100%
[7]
  % of control: 87%

## N#Cc1cccc(-c2c[nH]c3ncnc(N4CCOCC4)c23)c1
[8]
  % of control: 100%
